{"source": "patent US20240408125A1", "about": "“COMPOSITION COMPRISING POLYGALATENOSIDE AS ACTIVE INGREDIENT FOR PREVENTION OR TREATMENT OF CANCER” (HOSEO UNIVERSITY ACADEMIC COOPERATION FOUNDATION, priority 2021, published 2024)", "type_in_all_cases": "cell-based, Mouse", "key": {"B16-F10 melanoma cells [1]": {"test_system": "B16-F10 melanoma cells", "assay": "WST8 cell viability assay", "conditions": "3 μM for 48 hours, WST8, absorbance at 450 nm, FIG. 3", "description": "(§1) B16-F10 melanoma cells were cultured under conditions of 36.5° C. and 5% CO2 using a Dulbecco's modified Eagle's medium supplemented with 10% (v/v) fetal bovine serum and 1% (v/v) penicillin-streptomycin.\nB16-F10 melanoma cells were cultured in a 96-well cell culture plate for 12 hours, and then treated with polygalatenoside A at concentrations of 0, 0.1, 0.3, 1, 3, and 10 μM for 48 hours, respectively. The medium was treated with a WST8 Cell Viability Assay Reagent to a concentration of 10% (v/v) and cultured for 2 hours. Thereafter, cell viability was confirmed by measuring absorbance at 450 nm using a microplate reader, and the results were shown in FIG. 3."}, "B16-F10 melanoma cells [2]": {"test_system": "B16-F10 melanoma cells", "assay": "Viable cell number by trypan blue staining and hemocytometer", "conditions": "FIG. 4", "description": "as §1\nNext, in order to measure changes in cell number, B16-F10 cells were cultured for 12 hours, and then treated with polygalatenoside A at concentrations of 0, 0.1, 0.3, 1, 3, and 10 μM for 72 hours, respectively. The cells were collected every 24 hours, stained with trypan blue, and the number of viable cells was measured using a hemocytometer, and the results were shown in FIG. 4."}, "NOX2 protein": {"test_system": "NOX2 protein", "assay": "NOX2 protein expression by Western blot with densitometry relative to β-actin", "conditions": "B16-F10 cells, FIG. 2", "description": "as §1\nB16-F10 melanoma cells were cultured for 12 hours, and then treated with polygalatenoside A at concentrations of 0, 0.1, 0.3, 1, 3, and 10 μM for 24 hours, respectively. Thereafter, the cells were washed twice with PBS, and collected, and proteins were recovered by lysing the cells with a radioimmunoprecipitation assay (RIPA) buffer containing phenylmethylsulfonyl fluoride (PMSF). 50 μg of proteins was separated by sodium dodecyl sulfate poly-acrylamide gel electrophoresis (SDS-PAGE) and then transferred to a polyvinylidene fluoride (PVDF) membrane. The membrane was treated with a tris-buffered saline (TBS; pH 7.6) containing 5% (w/v) skim milk, 0.05% (v/v) tween-20, and 0.01% (w/v) sodium azide at 25° C. for 1 hour. The membrane was washed three times with TBST (TBS containing 0.05% (v/v) tween-20) and treated with an anti-NOX2 primary antibody and a horse radish peroxidase (HRP)-conjugated secondary antibody. The protein levels were visualized using enhanced chemiluminescence (ECL) and an X-ray film. The expression level of NOX2 protein compared to β-actin was shown in FIG. 2 through a densitometry of ImageJ software."}}}
{"compound": "O=C(OCC1OC(OC2COC(CO)[C@@H](O)C2O)C(O)C(O)C1O)c1ccccc1", "note": "(some centres unmarked) [polygalatenoside A, Polygalatenoside A]", "values": [{"measurement": "cell viability (cell death effect)", "setting": "B16-F10 melanoma cells [1]", "result": "cell death effect was exhibited"}, {"measurement": "growth inhibition effect (number of viable cells)", "setting": "B16-F10 melanoma cells [2]; 3 μM up to 72 hours, compared with the other concentrations", "result": "most significantly shown"}, {"measurement": "growth of melanoma cells (number of viable cells)", "setting": "B16-F10 melanoma cells [2]; 0.1-10 μM up to 72 hours, counted every 24 hours", "result": "inhibited"}, {"measurement": "expression of NOX2 compared to untreated control group (fold)", "setting": "NOX2 protein; 3 μM for 24 hours", "result": "about 1.4 times"}, {"measurement": "expression of NOX2 compared to untreated control group", "setting": "NOX2 protein; 0.1-10 μM for 24 hours", "result": "increased"}]}
